What was measured:
Type in all cases: biochemical
[1] = biological target: Amaranthus palmeri GS2.2 wild‐type (WT); test: GS enzyme inhibition assay, GS2.2 wild-type; conditions: GS2.2 WT
Procedure: (§1) GS activity was determined spectrophotometrically following the Sigma‐Aldrich enzymatic assay protocol. The reaction couples the ATP‐dependent conversion of L‐glutamate and ammonium to L‐glutamine with pyruvate kinase (PK) and L‐lactate dehydrogenase (LDH), such that oxidation of β‐NADH to β‐NAD^+ can be monitored at 340 nm. Recombinant GS from A. palmeri was expressed in E. coli, purified by affinity chromatography, and quantified by the Bradford method using bovine serum albumin as standard. […] Reaction mixtures were equilibrated to 37°C and initiated by the addition of enzyme, and the decrease in absorbance at 340 nm was recorded for 5–10 min; only the linear portion of the curve was used for activity calculations. […] Activity was calculated using an extinction coefficient for NADH of 6.22 mM^−1 cm^−1 and expressed as units per mg protein, where one unit corresponds to the formation of 1 μmol of L‐glutamine in […] at pH 7.1 and 37 °C. […] Percent inhibition was calculated relative to untreated (positive) and no‐enzyme (negative) controls. […] Resistance factors were calculated by dividing the IC₅₀ of each mutant variant by that of wild‐type GS.

[2] = test system: Amaranthus palmeri cytosolic GS1.1 R291S; test: GS enzyme inhibition assay, GS1.1 R291S
Procedure: as §1

[3] = test system: Amaranthus palmeri cytosolic GS1.1 V193T; test: GS enzyme inhibition assay, GS1.1 V193T
Procedure: as §1

[4] = read-out: Glufosinate‐ammonium IC50

CP(=O)(O)CCC(N)C(=O)O (centres unmarked) [Glufosinate‐ammonium]
IC50 [1]: 110 µM | Glufosinate‐ammonium % Inhibition at saturation 10 000 μM ([2]; 10 000 μM): 0.3% | IC50 [2, 4]: > 10000 µM | Resistance index (RI) ([3]; IC50 variant / IC50 WT): 3.2 | IC50 [3, 4]: 69 µM

Source: PMC13352219, “Analysis of glutamine synthetase target‐site mutations and their role in endowing glufosinate‐ammonium resistance” (Pest Management Science, 2026)
